Measurements published in BigSolDB 2.1.

Settings: in n-octanol

O=C(O)c1ccccc1
Settings	solubility (mole fraction)
300.15 K	0.192

Cc1ccccc1C(=O)O
Settings	solubility (mole fraction)
297.15 K	0.155
299.65 K	0.165
301.15 K	0.18
302.65 K	0.19
304.75 K	0.196
305.35 K	0.197
306.25 K	0.2
306.95 K	0.208
308.95 K	0.219
310.65 K	0.23
312.25 K	0.239
314.05 K	0.25
315.75 K	0.26
316.95 K	0.271
318.75 K	0.281
320.35 K	0.294
321.55 K	0.305

Cc1ccc(C(=O)O)cc1
Settings	solubility (mole fraction)
297.35 K	0.0595
298.05 K	0.0608
298.95 K	0.0618
301.65 K	0.0663
307.25 K	0.0767
308.65 K	0.0789
309.65 K	0.0816
312.95 K	0.0871
314.35 K	0.0896
315.8 K	0.0925
317.65 K	0.0962
319.65 K	0.0997
320.4 K	0.101
321.55 K	0.103
322.15 K	0.104

O=C(O)c1ccc(O)cc1
Settings	solubility (mole fraction)
297.65 K	0.105
299.95 K	0.107
301.45 K	0.109
302.85 K	0.11
304.25 K	0.112
305.85 K	0.113
306.95 K	0.115
308.15 K	0.116
309.85 K	0.117
311.25 K	0.119
313.15 K	0.121
315.45 K	0.122
317.25 K	0.124
318.65 K	0.126
320.55 K	0.128
322.25 K	0.13

O=C(O)c1ccccc1[N+](=O)[O-]
Settings	solubility (mole fraction)
297.15 K	0.0761
299.65 K	0.0806
300.15 K	0.084
302.05 K	0.0895
303.15 K	0.0928
306.15 K	0.101
307.15 K	0.104
308.35 K	0.108
309.25 K	0.113
310.15 K	0.117
311.75 K	0.122
313.15 K	0.129
314.85 K	0.135
317.15 K	0.141
318.65 K	0.147
319.85 K	0.154
321.15 K	0.161
